{"source": "the kinase profiling compilation of Christmann-Franck et al. (2016)", "experiment_in_all_cases": "KINOMEscan competition binding", "settings_in_all_cases": "compound 1.0 µM", "key": {"[1]": {"molecular_target": "MAPKAPK5 (human) (UniProt Q8IW41)"}, "[2]": {"molecular_target": "RIOK3 (human) (UniProt O14730)"}, "[3]": {"molecular_target": "EPHB3 (human) (UniProt P54753)"}, "[4]": {"molecular_target": "PI4KB (human) (UniProt Q9UBF8)"}, "[5]": {"molecular_target": "MST4 (human) (UniProt Q9P289)", "sequence (Q9P289 whole entry, looked up)": "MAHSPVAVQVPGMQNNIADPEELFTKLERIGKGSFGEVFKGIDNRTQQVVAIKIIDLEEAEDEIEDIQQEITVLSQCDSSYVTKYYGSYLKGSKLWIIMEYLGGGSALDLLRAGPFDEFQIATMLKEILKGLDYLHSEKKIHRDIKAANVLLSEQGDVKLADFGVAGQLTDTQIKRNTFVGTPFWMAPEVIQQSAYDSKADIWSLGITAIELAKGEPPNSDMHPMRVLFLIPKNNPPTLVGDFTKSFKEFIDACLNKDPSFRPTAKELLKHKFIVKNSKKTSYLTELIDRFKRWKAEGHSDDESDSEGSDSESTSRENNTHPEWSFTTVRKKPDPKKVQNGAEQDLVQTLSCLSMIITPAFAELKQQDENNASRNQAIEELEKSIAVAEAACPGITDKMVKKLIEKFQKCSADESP"}, "[6]": {"molecular_target": "MUSK (human) (UniProt O15146)"}, "[7]": {"molecular_target": "EPHB6 (human) (UniProt O15197)"}, "[8]": {"molecular_target": "RPS6KA4 KD2 (human) (UniProt O75676)"}, "[9]": {"molecular_target": "PKN3 (M.tuberculosis) (UniProt Q6P5Z2)"}, "[10]": {"molecular_target": "EIF2AK2 (human) (UniProt P19525)"}, "[11]": {"molecular_target": "MAP3K2 (human) (UniProt Q9Y2U5)"}, "[12]": {"molecular_target": "CHUK (human) (UniProt O15111)", "sequence (O15111 whole entry, looked up)": "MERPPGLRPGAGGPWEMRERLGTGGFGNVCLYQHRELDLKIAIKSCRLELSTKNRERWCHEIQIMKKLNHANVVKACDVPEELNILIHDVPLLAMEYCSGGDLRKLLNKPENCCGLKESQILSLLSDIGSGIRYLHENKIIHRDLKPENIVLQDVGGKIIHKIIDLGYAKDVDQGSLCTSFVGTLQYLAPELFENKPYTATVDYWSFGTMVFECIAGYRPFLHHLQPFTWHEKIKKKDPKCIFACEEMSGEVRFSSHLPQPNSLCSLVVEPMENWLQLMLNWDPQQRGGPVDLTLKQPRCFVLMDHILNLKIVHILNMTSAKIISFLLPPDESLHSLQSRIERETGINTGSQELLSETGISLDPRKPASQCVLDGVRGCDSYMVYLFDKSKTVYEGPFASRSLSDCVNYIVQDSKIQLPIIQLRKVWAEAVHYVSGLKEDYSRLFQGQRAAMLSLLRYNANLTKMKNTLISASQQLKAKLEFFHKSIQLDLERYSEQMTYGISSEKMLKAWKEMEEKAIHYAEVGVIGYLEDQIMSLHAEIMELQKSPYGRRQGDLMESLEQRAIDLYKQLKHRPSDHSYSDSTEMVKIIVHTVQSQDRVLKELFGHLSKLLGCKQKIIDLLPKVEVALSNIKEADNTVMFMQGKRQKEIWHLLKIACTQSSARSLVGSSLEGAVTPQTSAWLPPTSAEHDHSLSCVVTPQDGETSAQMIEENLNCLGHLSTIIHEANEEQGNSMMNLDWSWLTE"}, "[13]": {"molecular_target": "FGFR2 (human) (UniProt P21802)"}, "[14]": {"molecular_target": "ANKK1 (human) (UniProt Q8NFD2)", "sequence (Q8NFD2 whole entry, looked up)": "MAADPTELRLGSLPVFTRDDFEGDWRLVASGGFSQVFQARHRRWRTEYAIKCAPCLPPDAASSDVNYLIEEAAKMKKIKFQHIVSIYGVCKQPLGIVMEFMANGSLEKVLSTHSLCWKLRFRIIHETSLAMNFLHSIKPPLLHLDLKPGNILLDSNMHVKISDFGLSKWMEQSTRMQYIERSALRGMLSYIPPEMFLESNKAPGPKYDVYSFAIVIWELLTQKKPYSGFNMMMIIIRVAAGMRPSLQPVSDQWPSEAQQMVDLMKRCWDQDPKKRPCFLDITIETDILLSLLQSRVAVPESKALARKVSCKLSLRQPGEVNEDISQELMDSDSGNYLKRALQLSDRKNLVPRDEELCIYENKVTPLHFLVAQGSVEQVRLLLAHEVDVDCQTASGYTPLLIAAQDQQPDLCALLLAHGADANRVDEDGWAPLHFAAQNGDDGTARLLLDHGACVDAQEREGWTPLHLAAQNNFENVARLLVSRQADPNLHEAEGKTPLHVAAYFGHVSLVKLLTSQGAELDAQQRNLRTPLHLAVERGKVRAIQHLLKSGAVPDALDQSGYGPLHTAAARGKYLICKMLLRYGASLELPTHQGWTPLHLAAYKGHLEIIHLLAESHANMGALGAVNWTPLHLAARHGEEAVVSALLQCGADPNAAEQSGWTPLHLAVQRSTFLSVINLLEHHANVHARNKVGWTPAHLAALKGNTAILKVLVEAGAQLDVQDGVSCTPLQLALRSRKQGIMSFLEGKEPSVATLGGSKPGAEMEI"}, "[15]": {"tested_on": "EGFR (human), P00533 [G719C]"}, "[16]": {"molecular_target": "HUNK (human) (UniProt P57058)", "sequence (P57058 whole entry, looked up)": "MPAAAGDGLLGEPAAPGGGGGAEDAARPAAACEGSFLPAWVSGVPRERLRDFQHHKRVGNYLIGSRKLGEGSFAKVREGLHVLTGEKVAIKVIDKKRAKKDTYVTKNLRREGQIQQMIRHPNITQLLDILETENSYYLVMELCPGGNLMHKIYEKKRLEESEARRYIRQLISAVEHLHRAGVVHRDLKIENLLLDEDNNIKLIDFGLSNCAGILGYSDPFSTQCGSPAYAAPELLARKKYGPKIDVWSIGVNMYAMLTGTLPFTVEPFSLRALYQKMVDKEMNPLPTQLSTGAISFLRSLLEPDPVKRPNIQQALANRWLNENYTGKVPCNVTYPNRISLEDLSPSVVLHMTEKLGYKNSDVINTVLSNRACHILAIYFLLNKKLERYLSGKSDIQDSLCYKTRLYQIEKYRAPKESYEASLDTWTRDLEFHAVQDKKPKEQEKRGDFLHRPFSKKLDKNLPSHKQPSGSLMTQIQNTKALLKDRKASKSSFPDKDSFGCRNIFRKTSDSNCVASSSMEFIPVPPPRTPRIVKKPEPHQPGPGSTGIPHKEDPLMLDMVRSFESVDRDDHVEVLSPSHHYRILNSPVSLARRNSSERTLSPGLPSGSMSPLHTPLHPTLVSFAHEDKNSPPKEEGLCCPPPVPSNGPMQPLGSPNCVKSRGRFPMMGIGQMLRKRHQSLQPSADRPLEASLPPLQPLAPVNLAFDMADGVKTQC"}, "[17]": {"molecular_target": "PAK1 (human) (UniProt Q13153)"}, "[18]": {"molecular_target": "CSK (human) (UniProt P41240)"}, "[19]": {"molecular_target": "YSK4 (human) (UniProt Q56UN5)", "sequence (Q56UN5 whole entry, looked up)": "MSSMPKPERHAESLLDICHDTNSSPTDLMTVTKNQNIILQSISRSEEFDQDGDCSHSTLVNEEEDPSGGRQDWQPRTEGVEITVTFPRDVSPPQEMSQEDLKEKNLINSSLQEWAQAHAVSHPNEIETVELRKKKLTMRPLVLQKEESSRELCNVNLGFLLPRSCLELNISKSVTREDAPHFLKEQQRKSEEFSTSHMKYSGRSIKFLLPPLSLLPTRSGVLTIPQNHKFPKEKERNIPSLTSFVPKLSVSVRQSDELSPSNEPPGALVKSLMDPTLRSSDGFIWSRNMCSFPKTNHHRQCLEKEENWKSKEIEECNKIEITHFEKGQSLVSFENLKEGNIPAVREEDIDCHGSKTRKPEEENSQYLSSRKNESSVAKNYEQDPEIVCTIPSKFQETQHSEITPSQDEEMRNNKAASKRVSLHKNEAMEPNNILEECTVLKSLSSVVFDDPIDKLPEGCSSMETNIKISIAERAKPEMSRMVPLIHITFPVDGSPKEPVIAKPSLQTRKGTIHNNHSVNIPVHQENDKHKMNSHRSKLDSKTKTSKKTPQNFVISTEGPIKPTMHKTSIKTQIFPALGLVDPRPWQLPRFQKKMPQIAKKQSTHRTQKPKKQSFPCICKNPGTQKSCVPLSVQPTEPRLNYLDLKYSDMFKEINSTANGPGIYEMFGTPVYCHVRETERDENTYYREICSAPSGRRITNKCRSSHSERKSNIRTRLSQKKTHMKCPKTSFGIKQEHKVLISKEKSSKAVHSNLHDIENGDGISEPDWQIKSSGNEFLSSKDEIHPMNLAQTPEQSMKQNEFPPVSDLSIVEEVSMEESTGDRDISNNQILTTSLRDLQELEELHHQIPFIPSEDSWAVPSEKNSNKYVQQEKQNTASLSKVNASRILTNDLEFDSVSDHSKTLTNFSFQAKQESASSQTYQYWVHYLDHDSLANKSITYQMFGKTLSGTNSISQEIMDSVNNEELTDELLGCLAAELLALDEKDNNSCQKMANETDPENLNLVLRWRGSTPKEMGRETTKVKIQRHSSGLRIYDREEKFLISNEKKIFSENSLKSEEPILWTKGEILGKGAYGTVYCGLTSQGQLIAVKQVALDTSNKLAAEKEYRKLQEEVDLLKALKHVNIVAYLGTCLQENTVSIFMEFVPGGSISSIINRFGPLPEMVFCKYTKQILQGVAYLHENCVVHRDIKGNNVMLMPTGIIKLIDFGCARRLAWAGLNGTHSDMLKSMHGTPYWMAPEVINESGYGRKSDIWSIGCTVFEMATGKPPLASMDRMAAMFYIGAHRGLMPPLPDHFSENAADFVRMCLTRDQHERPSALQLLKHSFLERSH"}, "[20]": {"molecular_target": "CLK2 (human) (UniProt P49760)"}, "[21]": {"molecular_target": "STK10 (human) (UniProt O94804)"}, "[22]": {"molecular_target": "CDC42BPB (human) (UniProt Q9Y5S2)"}, "[23]": {"molecular_target": "PRKG2 (human) (UniProt Q13237)"}, "[24]": {"molecular_target": "CAMK2D (human) (UniProt Q13557)"}, "[25]": {"molecular_target": "STK38 (human) (UniProt Q15208)"}, "[26]": {"tested_on": "FLT3 (human), P36888 [N841I]"}, "[27]": {"molecular_target": "ITK (human) (UniProt Q08881)"}, "[28]": {"molecular_target": "DSTYK (human) (UniProt Q6XUX3)"}, "[29]": {"molecular_target": "NEK2 (human) (UniProt P51955)"}, "[30]": {"molecular_target": "AKT3 (human) (UniProt Q9Y243)"}, "[31]": {"molecular_target": "BLK (human) (UniProt P51451)"}, "[32]": {"molecular_target": "ULK1 (human) (UniProt O75385)"}, "[33]": {"molecular_target": "STK4 (human) (UniProt Q13043)"}, "[34]": {"tested_on": "EGFR (human), P00533 [747-751 del / S ins]"}, "[35]": {"tested_on": "FLT3 (human), P36888 [R834Q]"}, "[36]": {"molecular_target": "CDK11B (human) (UniProt P21127)"}, "[37]": {"molecular_target": "KIT (human) (UniProt P10721)"}, "[38]": {"molecular_target": "NIM1 (human) (UniProt Q8IY84)", "sequence (Q8IY84 whole entry, looked up)": "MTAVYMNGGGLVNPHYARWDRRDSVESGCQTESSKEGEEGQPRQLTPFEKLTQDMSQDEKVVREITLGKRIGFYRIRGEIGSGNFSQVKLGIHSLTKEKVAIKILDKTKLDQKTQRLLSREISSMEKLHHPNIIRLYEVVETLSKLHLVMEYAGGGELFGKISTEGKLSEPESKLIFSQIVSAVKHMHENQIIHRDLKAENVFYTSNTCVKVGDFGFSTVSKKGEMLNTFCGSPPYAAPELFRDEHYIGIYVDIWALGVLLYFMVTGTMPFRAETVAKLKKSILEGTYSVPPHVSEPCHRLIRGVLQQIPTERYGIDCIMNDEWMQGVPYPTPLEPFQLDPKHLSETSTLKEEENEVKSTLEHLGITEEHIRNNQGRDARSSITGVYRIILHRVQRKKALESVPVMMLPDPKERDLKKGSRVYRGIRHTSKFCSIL"}, "[39]": {"molecular_target": "TNK1 (human) (UniProt Q13470)", "sequence (Q13470 whole entry, looked up)": "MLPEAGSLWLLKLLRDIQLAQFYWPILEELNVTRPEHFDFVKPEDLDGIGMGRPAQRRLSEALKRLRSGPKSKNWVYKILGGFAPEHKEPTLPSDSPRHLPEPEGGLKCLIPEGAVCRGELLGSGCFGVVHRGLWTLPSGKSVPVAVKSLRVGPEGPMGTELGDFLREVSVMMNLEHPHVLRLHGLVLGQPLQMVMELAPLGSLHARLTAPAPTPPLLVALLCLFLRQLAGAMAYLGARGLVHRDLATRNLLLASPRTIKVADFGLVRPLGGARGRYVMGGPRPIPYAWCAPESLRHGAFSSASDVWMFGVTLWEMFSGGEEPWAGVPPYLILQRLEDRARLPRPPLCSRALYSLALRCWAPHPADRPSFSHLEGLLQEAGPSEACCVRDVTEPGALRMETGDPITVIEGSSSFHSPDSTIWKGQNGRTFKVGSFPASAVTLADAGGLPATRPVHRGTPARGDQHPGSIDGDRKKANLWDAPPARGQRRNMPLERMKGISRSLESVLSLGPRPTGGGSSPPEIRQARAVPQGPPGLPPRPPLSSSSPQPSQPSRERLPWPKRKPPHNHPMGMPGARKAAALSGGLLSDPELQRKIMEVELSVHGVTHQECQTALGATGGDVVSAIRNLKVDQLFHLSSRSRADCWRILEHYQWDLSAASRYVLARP"}, "[40]": {"tested_on": "KIT (human), P10721 [V559D/T670I]"}, "[41]": {"molecular_target": "GSK3A (human) (UniProt P49840)"}, "[42]": {"tested_on": "PIK3CA (human), P42336 [E542K]"}, "[43]": {"tested_on": "EGFR (human), P00533 [T790M]"}}, "data": [{"compound": "COCCNCCCn1c(C(=O)CF)c(-c2ccc(C)cc2)c2c(N)ncnc21", "values": [{"measurement": "kinase still bound, per cent of control", "setting": "[1]", "result": 100, "unit": "%"}, {"measurement": "kinase still bound, per cent of control", "setting": "[2]", "result": 68, "unit": "%"}, {"measurement": "kinase still bound, per cent of control", "setting": "[3]", "result": 100, "unit": "%"}, {"measurement": "kinase still bound, per cent of control", "setting": "[4]", "result": 100, "unit": "%"}, {"measurement": "kinase still bound, per cent of control", "setting": "[5]", "result": 69, "unit": "%"}, {"measurement": "kinase still bound, per cent of control", "setting": "[6]", "result": 100, "unit": "%"}, {"measurement": "kinase still bound, per cent of control", "setting": "[7]", "result": 100, "unit": "%"}, {"measurement": "kinase still bound, per cent of control", "setting": "[8]", "result": 100, "unit": "%"}, {"measurement": "kinase still bound, per cent of control", "setting": "[9]", "result": 100, "unit": "%"}, {"measurement": "kinase still bound, per cent of control", "setting": "[10]", "result": 90, "unit": "%"}, {"measurement": "kinase still bound, per cent of control", "setting": "[11]", "result": 90, "unit": "%"}, {"measurement": "kinase still bound, per cent of control", "setting": "[12]", "result": 72, "unit": "%"}, {"measurement": "kinase still bound, per cent of control", "setting": "[13]", "result": 100, "unit": "%"}, {"measurement": "kinase still bound, per cent of control", "setting": "[14]", "result": 100, "unit": "%"}, {"measurement": "kinase still bound, per cent of control", "setting": "[15]", "result": 84, "unit": "%"}, {"measurement": "kinase still bound, per cent of control", "setting": "[16]", "result": 100, "unit": "%"}, {"measurement": "kinase still bound, per cent of control", "setting": "[17]", "result": 89, "unit": "%"}, {"measurement": "kinase still bound, per cent of control", "setting": "[18]", "result": 95, "unit": "%"}, {"measurement": "kinase still bound, per cent of control", "setting": "[19]", "result": 100, "unit": "%"}, {"measurement": "kinase still bound, per cent of control", "setting": "[20]", "result": 100, "unit": "%"}, {"measurement": "kinase still bound, per cent of control", "setting": "[21]", "result": 100, "unit": "%"}, {"measurement": "kinase still bound, per cent of control", "setting": "[22]", "result": 94, "unit": "%"}, {"measurement": "kinase still bound, per cent of control", "setting": "[23]", "result": 98, "unit": "%"}, {"measurement": "kinase still bound, per cent of control", "setting": "[24]", "result": 82, "unit": "%"}, {"measurement": "kinase still bound, per cent of control", "setting": "[25]", "result": 100, "unit": "%"}, {"measurement": "kinase still bound, per cent of control", "setting": "[26]", "result": 65, "unit": "%"}, {"measurement": "kinase still bound, per cent of control", "setting": "[27]", "result": 100, "unit": "%"}, {"measurement": "kinase still bound, per cent of control", "setting": "[28]", "result": 100, "unit": "%"}, {"measurement": "kinase still bound, per cent of control", "setting": "[29]", "result": 98, "unit": "%"}, {"measurement": "kinase still bound, per cent of control", "setting": "[30]", "result": 86, "unit": "%"}, {"measurement": "kinase still bound, per cent of control", "setting": "[31]", "result": 100, "unit": "%"}, {"measurement": "kinase still bound, per cent of control", "setting": "[32]", "result": 100, "unit": "%"}, {"measurement": "kinase still bound, per cent of control", "setting": "[33]", "result": 94, "unit": "%"}, {"measurement": "kinase still bound, per cent of control", "setting": "[34]", "result": 84, "unit": "%"}, {"measurement": "kinase still bound, per cent of control", "setting": "[35]", "result": 96, "unit": "%"}, {"measurement": "kinase still bound, per cent of control", "setting": "[36]", "result": 100, "unit": "%"}, {"measurement": "kinase still bound, per cent of control", "setting": "[37]", "result": 77, "unit": "%"}, {"measurement": "kinase still bound, per cent of control", "setting": "[38]", "result": 100, "unit": "%"}, {"measurement": "kinase still bound, per cent of control", "setting": "[39]", "result": 100, "unit": "%"}, {"measurement": "kinase still bound, per cent of control", "setting": "[40]", "result": 86, "unit": "%"}, {"measurement": "kinase still bound, per cent of control", "setting": "[41]", "result": 100, "unit": "%"}, {"measurement": "kinase still bound, per cent of control", "setting": "[42]", "result": 100, "unit": "%"}, {"measurement": "kinase still bound, per cent of control", "setting": "[43]", "result": 100, "unit": "%"}]}]}
